Here are results for 26 compounds from patent US6528532B1, “Urea derivatives as HIV aspartyl protease inhibitors” (Pharmacor Inc., priority 2002, dated 2003).

By Ki is commonly meant a dissociation constant, usually derived from enzyme kinetics or from competition with a known ligand. As a reminder, the IC50 is the point on the concentration scale where inhibition reaches its midpoint.

The structures appear in SMILES notation.

The target in the first data set is HIV protease (Human immunodeficiency virus type 1 group M subtype B, UniProt P04585). The experiment in a line: Enzymatic (FRET fluorometric) assay for determining the inhibition constant (Ki) of compounds targeting the HIV protease. The settings on record: FRET substrate (EDANS/DABCYL), equation of Henderson; read-out: Ki. The class given is biochemical. An excerpt:
Enzymatic Assay for Determining the Inhibition Constant (Ki) of Synthetic Compounds Targeting the HIV Protease
This is a fluorometric assay based on the cleavage by protease of a substrate carrying a donor group (EDANS) and an acceptor group (DABCYL) on each side of the cleavage site, interacting together through fluorescence resonance energy transfer (FRET) as described by Matayoshi et al. (Science 247:[…], 1990).
After calculation of Vo and Vi, the inhibition constant (Ki) of the compound is determined using the equation of Henderson: [formula]
where Vo=the enzyme's initial velocity
Vi=the enzyme velocity in the presence of the inhibitory compound,
[I]=inhibitor concentration, [S]=substrate concentration,
Km=Michaelis-Menten constant and Kiapp=apparent Ki
Graphs are traced and the Ki determined using GraphPad Prism software v. 3.0.
Consider `CC(C)CN([C@H](CO)CCCCNC(=O)N(CCc1cccs1)Cc1ccc(F)cc1)S(=O)(=O)c1ccc(N)cc1` [Example 69, (2S) 2-N-(4-Aminobenzenesulfonyl)-2-N-isobutyl-6-N-[N′-(4-fluorobenzyl)-N′-(2-thiophenethyl)aminocarbonyl]-2,6-diaminohexanol], for which the Ki is 34 nM. Turning to `CC(C)CN([C@@H](CCCCNC(=O)N(Cc1ccccc1)Cc1cccnc1)C(=O)O)S(=O)(=O)c1ccc(N)cc1` [Example 47, Nα-(4-Aminobenzenesulfonyl)-Nα-isobutyl-Nε-[N′-benzyl-N′-(3-picolyl)aminocarbonyl]-L-lysine], the Ki is 2.4 nM. Still for that read-out and setting: the same measure for `Cc1ccc(S(=O)(=O)N(CC(C)C)[C@@H](CCCCNC(=O)N(Cc2ccccc2)Cc2ccc([N+](=O)[O-])cc2)C(=O)O)cc1` [Example 56, Nα-Isobutyl-Nα-(4-methylbenzenesulfonyl)-Nε-[N′-benzyl-N′-(4-nitrobenzyl)aminocarbonyl]-L-lysine]: 1.5 nM; for `CC(C)CN([C@H](CO)CCCCNC(=O)N(Cc1ccc2c(c1)OCO2)Cc1cccs1)S(=O)(=O)c1ccc(N)cc1` [Example 75, (2S) 2-N-(4-Aminobenzenesulfonyl)-2-N-isobutyl-6-N-[N′-(2-thiophenemethyl)-N′-piperonylaminocarbonyl]-2,6-diaminohexanol]: 2 nM; for `CC(C)CN([C@@H](CCCCNC(=O)N(Cc1ccccc1)Cc1ccccc1)C(=O)O)S(=O)(=O)c1ccc(N)cc1` [Example 36, Nα-(4-Aminobenzenesulfonyl)-Nα-isobutyl-Nε-(N′,N′-dibenzylaminocarbonyl)-L-lysine]: 1.8 nM. On the same count and under the same terms, next, `Cc1ccc(S(=O)(=O)N(CC(C)C)[C@@H](CCCCNC(=O)N(Cc2ccccc2)Cc2ccccc2[N+](=O)[O-])C(=O)O)cc1` [Example 54, Nα-Isobutyl-Nα-(4-methylbenzenesulfonyl)-Nε-[N′-benzyl-N′-(2-nitrobenzyl)aminocarbonyl]-L-lysine]: 0.9 nM; `CC(C)CN([C@H](CO)CCCCNC(=O)N(Cc1ccc(C(F)(F)F)cc1)Cc1ccc2c(c1)OCO2)S(=O)(=O)c1ccc(N)cc1` [Example 92, (2S) 2-N-(4-Aminobenzenesulfonyl)-2-N-isobutyl-6-N-[N′-(4-trifluoromethylbenzyl)-N′-piperonylaminocarbonyl]-2,6-diaminohexanol]: 2.5 nM. Take `Cc1ccc(S(=O)(=O)N(CC(C)C)[C@@H](CCCCNC(=O)N(Cc2ccccc2)Cc2cccc([N+](=O)[O-])c2)C(=O)O)cc1` [Example 55, Nα-Isobutyl-Nα-(4-methylbenzenesulfonyl)-Nε-[N′-benzyl-N′-(3-nitrobenzyl)aminocarbonyl]-L-lysine]: the Ki amounted to 1.1 nM. On the same count and under the same terms, the same measure for `CC(C)CN([C@H](CO)CCCCNC(=O)N(Cc1ccc(F)cc1)C1CCCCC1)S(=O)(=O)c1ccc(N)cc1` [Example 66, (2S) 2-N-(4-Aminobenzenesulfonyl)-2-N-isobutyl-6-N-[N′-cyclohexyl-N′-(4-fluorobenzyl)aminocarbonyl]-2,6-diaminohexanol]: 175 nM; for `Cc1ccc(S(=O)(=O)N(CC(C)C)[C@@H](CCCCNC(=O)NCCc2ccccc2)C(=O)O)cc1` [Example 21, Nα-Isobutyl-Nα-(4-methylbenzenesulfonyl)-Nε-(phenethylaminocarbonyl)-L-lysine]: 167 nM; for `COc1ccc(CN(Cc2ccncc2)C(=O)NCCCC[C@@H](C(=O)O)N(CC(C)C)S(=O)(=O)c2ccc(N)cc2)cc1` [Example 49, Nα-(4-Aminobenzenesulfonyl)-Nα-isobutyl-Nε-[N′-(4-methoxybenzyl)-N′-(4-picolyl)aminocarbonyl]-L-lysine]: 12 nM. Still for that read-out and setting: the same measure for `Cc1ccc(S(=O)(=O)N(CC(C)C)[C@H](CO)CCCCNC(=O)N(Cc2ccccc2)Cc2ccccc2)cc1` [Example 33, (2S) 2-N-Isobutyl-2-N-(4-methylbenzenesullonyl)-6-N-(N′,N′-dibenzylaminocarbonyl)-2,6-diaminohexanol]: 17 nM.

As to `Cc1ccc(S(=O)(=O)N(CC(C)C)C(CCCCNC(=NC#N)NCCc2c[nH]c3ccccc23)C(=O)O)cc1` [Example 29, Nα-Isobutyl-Nα-(4-methylbenzenesulfonyl)-Nε-[2′-(3-indolyl)ethylaminocarbonyl-N-cyanoamidine]-L-lysine], the Ki came to 8.2 nM. Same read-out and setting: next, `COc1ccc(CN(Cc2ccc3c(c2)OCO3)C(=O)NCCCC[C@@H](CO)N(CC(C)C)S(=O)(=O)c2ccc(N)cc2)cc1` [Example 83, (2S) 2-N-(4-Aminobenzenesulfonyl)-2-N-isobutyl-6-N-[N′-(4-methoxybenzyl)-N′-piperonylaminocarbonyl]-2,6-diaminohexanol]: 2.2 nM; `Cc1ccc(S(=O)(=O)N(CC(C)C)[C@@H](CCCCNC(=O)NCCc2c[nH]c3ccccc23)C(=O)O)cc1` [Example 6, Nα-Isobutyl-Nα-(4-methylbenzenesulfonyl)-Nε-[2′-(3-indolyl)ethylaminocarbonyl]-L-lysine]: 40 nM. Still for that read-out and setting: the same measure for `Cc1ccc(S(=O)(=O)N(CC(C)C)[C@H](CO)CCCCNC(=S)N(Cc2ccccc2)Cc2ccccc2)cc1` [Example 34, (2S) 2-N-Isobutyl-2-N-(4-methylbenzenesulfonyl)-6-N-(N′,N′-dibenzylaminothiocarbonyl)-2,6-diaminohexanol]: 78 nM; for `CC(C)CN([C@H](CO)CCCCNC(=O)N(Cc1ccccc1)Cc1ccccc1)S(=O)(=O)c1ccc(N)cc1` [Example 41, (2S) 2-N-(4-Aminobenzenesulfonyl)-2-N-isobutyl-6-N-(N′,N′-dibenzylaminocarbonyl)-2,6-diaminohexanol]: 12 nM; for `CC(C)CN([C@H](CO)CCCCNC(=O)N(Cc1ccc([N+](=O)[O-])cc1)Cc1ccc2c(c1)OCO2)S(=O)(=O)c1ccc(N)cc1` [Example 84, (2S) 2-N-(4-Aminobenzenesulfonyl)-2-N-isobutyl-6-N-[N′-(4-nitrobenzyl)-N′-piperonylaminocarbonyl]-2,6-diaminohexanol]: 2 nM.

On to `Cc1ccc(S(=O)(=O)N(CC(C)C)[C@@H](CCCCNC(=S)NCc2ccccc2)C(=O)O)cc1` [Example 16, Nα-Isobutyl-Nα-(4-methylbenzenesulfonyl)-Nε-benzylaminothiocarbonyl-L-lysine], for which the Ki stood at 152 nM.

With `COc1ccc(CN(Cc2ccncc2)C(=O)NCCCC[C@@H](CO)N(CC(C)C)S(=O)(=O)c2ccc(C)cc2)cc1` [Example 45, (2S) 2-N-Isobutyl-2-N-(4-methylbenzenesulfonyl)-6-N-[N′-(4-methoxybenzyl)-N′-(4-picolyl)aminocarbonyl]-2,6-diaminohexanol], the Ki is 54 nM. The same measure, in the same setting: next, `Cc1ccc(S(=O)(=O)N(CC(C)C)[C@@H](CCCCNC(=O)N(Cc2ccccc2)Cc2ccccc2N)C(=O)O)cc1` [Example 57, Nα-Isobutyl-Nα-(4-methylbenzenesulfonyl)-Nε-[N′-(2-ninobenzyl)-N′-benzylaminocarbonyl]-L-lysine]: 1.7 nM.

As for `COc1ccc(CN(Cc2ccncc2)C(=O)NCCCC[C@@H](C(=O)O)N(CC(C)C)S(=O)(=O)c2ccc(C)cc2)cc1` [Example 43, Nα-Isobutyl-Nα-(4-methylbenzenesulfonyl)-Nε-[N′-(4-methoxybenzyl)-N′-(4-picolyl)aminocarbonyl]-L-lysine], the Ki amounted to 7.9 nM.

The same data set, now with this note: Ki, FRET substrate (EDANS/DABCYL), equation of Henderson.
The compound `CC(C)CN([C@H](CO)CCCCNC(=O)N(Cc1ccc(F)cc1)Cc1ccc2c(c1)OCO2)S(=O)(=O)c1ccc(N)cc1` [Example 67, (2S) 2-N-(4-Aminobenzenesulfonyl)-2-N-isobutyl-6-N-[N′-(4-fluorobenzyl)-N′-piperonylaminocarbonyl]-2,6-diaminohexanol] showed a Ki of 2 nM.

Test system in the next data set: not listed separately
The experiment in a line: in vitro. It is filed as cell-based. The settings on record: human. On the procedure:
To evaluate the EC50 of our compounds, various drug concentrations are incubated with the infected cell for six days and then the metabolic activity of the cells is monitored by the MTT assay. (See A. J. Japour et al, Antimicrobial Agents and Chemotherapy, 37, 1095-1101, 1993 and R. Pauwels et al. Journal of Virological Methods, 20, 309-321, 1988).
We use the laboratory viral strain NL4.3 as wild type virus and the cell line used is MT-4 which is a T-cell line highly sensitive to HIV-1. We also use some WT clinical strains. To address the resistance issue we assay the inhibitors with NL4.3 mutants which are designed to be resistant to specific commercially available inhibitors.
The same MTT assay is used to evaluate the CCIC50 (cell culture IC50) of our compounds except that the virus is omitted.
`CC(C)CN([C@H](CO)CCCCNC(=O)N(Cc1ccc(F)cc1)Cc1ccc2c(c1)OCO2)S(=O)(=O)c1ccc(N)cc1` [Example 67, (2S) 2-N-(4-Aminobenzenesulfonyl)-2-N-isobutyl-6-N-[N′-(4-fluorobenzyl)-N′-piperonylaminocarbonyl]-2,6-diaminohexanol] registered an IC50 at 6 days of 11000 nM.

As for `CC(C)CCN([C@H](CO)CCCCNC(=O)N(Cc1ccncc1)Cc1ccc2c(c1)OCO2)S(=O)(=O)c1ccc(N)cc1` [Example 95, (2S) 2-N-(4-Aminobenzenesulfonyl)-2-N-(3-methylbutyl)-6-N-[N′-(4-picolyl)-N′-piperonylaminocarbonyl]-2,6-diaminohexanol], the IC50 at 6 days is 28800 nM. The compound `CC(C)CCN([C@H](CO)CCCCNC(=O)N(Cc1ccc(F)cc1)Cc1ccc2c(c1)OCO2)S(=O)(=O)c1ccc(N)cc1` [Example 102, (2S) 2-N-(4-Aminobenzenesulfonyl)-2-N-(3-methylbutyl)-6-N-[N′-(4-fluorobenzyl)-N′-piperonylaminocarbonyl]-2,6-diaminohexanol] gave an IC50 at 6 days of 24400 nM. On the same count and under the same terms, next, `COc1cc(CN(Cc2ccc3c(c2)OCO3)C(=S)NCCCC[C@@H](CO)N(CCC(C)C)S(=O)(=O)c2ccc(N)cc2)cc(OC)c1OC` [Example 107, (2S) 2-N-(4-Aminobenzenesulfonyl)-2-N-(3-methylbutyl)-6-N-[N′-(3,4,5-trimethoxybenzyl)-N′-piperonylaminothiocarbonyl]-2,6-diaminohexanol]: 10700 nM.
